Tests used:
[1] = tested on: paddy rice variety "Nipponbare"; experiment: Alkaline soil cultivation test; format: in vivo; conditions: fossil shellfish soil pH9; 30 μmol administered only once; SPAD 7 days after the administration; FIG. 4
Experimental: The paddy rice variety “Nipponbare” was seeded in tap water. When roots and buds emerged, seedlings were soaked in a hydroponic solution (formulation in the Horticultural Experiment Station). When the plant height reached about 7 cm, the seedlings were transplanted into fossil shellfish soil having a pH9. Aqueous solutions containing 30 μmol of each of Fe-PDMA, only PDMA, a complex composed of the lactam compound (L2) and iron sulfate (III) (hereinafter, referred to as “Fe(III)-lactam compound (L2)”), a complex composed of the lactam compound (L2) and iron sulfate (II) (hereinafter, referred to as “Fe(II)-lactam compound (L2)”), lactam compound (L2), disodium ethylenediamine tetraacetate, Fe-EDTA, Fe-EDDHA, iron sulfate (III) or iron sulfate (II). were administered only once to each of the soil to measure SPAD values 7 days after the administration. According to FIG. 4, SPAD values were 33.8 and 30.9, respectively when either the Fe-lactam compound (L2) of divalent and trivalent iron was used.

[2] = Stability of aqueous solution (1H-NMR in waters with different pH); format: physicochemical; conditions: aqueous solutions of pH 1 (hydrochloric acid), pH 7 (water), pH 9 (sodium hydrogen carbonate), FIG. 1
Experimental: In order to investigate the stability of the lactam compound (L2) in water having different pH, an aqueous solution having a pH of 1 using hydrochloric acid, an aqueous solution having a pH of 7 in which the lactam compound (L2) was dissolved in water, and an aqueous solution having a pH of 9 using sodium hydrogen carbonate were subjected to ^1H-NMR measurement.

O=C(O)[C@@H]1CCCN1CC[C@@H](C(=O)O)N1CC[C@H](O)C1=O [lactam compound (L2)]
growth effect in alkaline soil [1]: the effect can be obtained | stability of the lactam ring in water [2]: the lactam ring structure is maintained
